In paper PMC6539495, “Anti-Cancer Activity of Novel Dihydrotestosterone-Derived Ring A-Condensed Pyrazoles on Androgen Non-Responsive Prostate Cancer Cell Lines” (International Journal of Molecular Sciences, 2019):

Columns and labels:
[1] = tested on: DU 145 cells; assay: MTT cell viability assay on DU 145 prostate cancer cells; assay type: cell-based, human; conditions: 72 hours
Protocol: (§1) HeLa, MCF-7 and MDA-MB-231 cells were obtained from Sigma-Aldrich and maintained as reported previously. MRC-5, PC-3, DU 145 cells were purchased from American Type Culture Collection (ATCC, Manassas, VA, USA). PC-3 and DU 145 were maintained in RPMI medium (Sigma-Aldrich) whereas MRC-5 cells were maintained in DMEM medium (Sigma-Aldrich). All media were complemented with 10% Fetal bovine serum (FBS, Sigma-Aldrich) 2 mM L-glutamine, 0.01% streptomycin and 0.005% ampicillin (Sigma-Aldrich). Cells were cultured under standard conditions in a 37 °C incubator containing 5% CO2 in 95% humidity.
(§2) Each test compound was dissolved in cell culture grade DMSO (Molar Chemicals, Halásztelek, Hungary) in a final concentration of […]. Antiproliferative action of the synthesized steroids was investigated by MTT assay. An amount of 5000 cells/well were seeded into 96 well plates. Twenty-four hours post seeding, all cell lines were treated with each compound in 10 and 30 μM concentrations for 72 hours. […] After 72 hours, cells were washed with PBS and incubated with culture medium containing 0.5 mg/mL MTT (3-(4, 5-dimethylthiazolyl-2)-2,5-diphenyltetrazolium bromide) reagent (SERVA, GmbH, Heidelberg, Germany) for an hour at 37 °C. Formazan crystals were solubilized in DMSO and extinction was measured at 570 nm using a Synergy HTX plate reader (BioTech-Hungary, Budapest, Hungary). MTT assays were performed at least three times using four independent biological replicates. Data were normalized to solvent controls and the graphical representation of the obtained data as well as the calculation of IC50 values were carried out by GraphPad Prism 7 software (GraphPad Software; San Diego, CA, USA).

[2] = tested on: MRC-5 cells; assay: MTT cell viability assay on non-cancerous MRC-5 fibroblasts; assay type: cell-based; conditions: 72 hours, MTT
Protocol: as §1, §2

[3] = tested on: PC-3 cells; assay: MTT cell viability assay on PC-3 prostate cancer cells; assay type: cell-based, human; conditions: for antiproliferative potency against PC-3 prostate cancer cells compared to MRC-5 non-cancerous fibroblasts: primary screen
Protocol: as §1, §2

[4] = tested on: MDA-MB-231 cells; assay: MTT cell viability assay on MDA-MB-231 breast cancer cells; assay type: cell-based, human; conditions: 72 hours
Protocol: as §1, §2

[5] = tested on: HeLa cells; assay: MTT cell viability assay on HeLa cervical cancer cells; assay type: cell-based, human; conditions: 72 hours
Protocol: as §1, §2

[6] = tested on: MCF-7 cells; assay: MTT cell viability assay on MCF-7 breast cancer cells; assay type: cell-based, human; conditions: 72 hours
Protocol: as §1, §2

Row | Structure (SMILES) | Mean values (%) of primary growth inhibitory screen (viability in %), DU 145 ([1]; 10 µM) [%] | Mean values (%) of primary growth inhibitory screen (viability in %), DU 145 ([1]; 30 µM) [%] | Mean values (%) of primary growth inhibitory screen (viability in %), MRC-5 ([2]; 10 µM) [%] | Mean values (%) of primary growth inhibitory screen (viability in %), MRC-5 ([2]; 30 µM) [%] | Mean values (%) of primary growth inhibitory screen (viability in %), PC-3 ([3]; 10 µM, 72 hours, MTT) [%] | antiproliferative potency against PC-3 prostate cancer cells compared to MRC-5 non-cancerous fibroblasts ([3]; 10 µM) | Mean values (%) of primary growth inhibitory screen (viability in %), PC-3 ([3]; 30 µM, 72 hours, MTT) [%] | antiproliferative potency against PC-3 prostate cancer cells compared to MRC-5 non-cancerous fibroblasts ([3]; 30 µM) | Mean values (%) of primary growth inhibitory screen (viability in %), MDA-MB-231 ([4]; 10 µM) [%] | Mean values (%) of primary growth inhibitory screen (viability in %), MDA-MB-231 ([4]; 30 µM) [%] | Mean values (%) of primary growth inhibitory screen (viability in %), HeLa ([5]; 10 µM) [%] | Mean values (%) of primary growth inhibitory screen (viability in %), HeLa ([5]; 30 µM) [%] | Mean values (%) of primary growth inhibitory screen (viability in %), MCF-7 ([6]; 10 µM) [%] | Mean values (%) of primary growth inhibitory screen (viability in %), MCF-7 ([6]; 30 µM) [%] | IC50 ([1]; ± SD) [µM] | IC50 ([2]; ± SD) [µM] | IC50 ([3]; MTT, 72 hours, ± SD) [µM] | IC50 ([4]; ± SD) [µM] | IC50 ([5]; ± SD) [µM] | IC50 ([6]; ± SD) [µM]
1 | Cc1c2c(nn1-c1ccc(C#N)cc1)C[C@@H]1CC[C@@H]3[C@H](CC[C@]4(C)[C@@H](O)CC[C@@H]34)[C@@]1(C)C2 [4i, 17β-Hydroxy-1′-(4″-cyanophenyl)-5′-methylpyrazolo[3′,4′:3,2]-5α-androstane] | 104.9 | 105.7 | 100.3 | 97.4 | 56.6 | significantly higher | 53.3 | significantly higher | 93.0 | 89.1 | 62.9 | 72.5 | 53.6 | 50.4 |  |  |  |  |  | 
2 | Cc1c2c(nn1-c1ccc(C#N)cc1)C[C@@H]1CC[C@@H]3[C@H](CC[C@]4(C)C(=O)CC[C@@H]34)[C@@]1(C)C2 [5i, 1′-(4″-Cyanophenyl)-5′-methylpyrazolo[3′,4′:3,2]-5α-androst-17-one] | 83.3 | 79.9 | 90.4 | 87.9 | 56.2 |  | 70.0 |  | 70.6 | 59.7 | 42.2 | 36.4 | 53.2 | 39.4 |  |  |  |  |  | 
3 | Cc1c2c(nn1-c1ccc(Cl)cc1)C[C@@H]1CC[C@@H]3[C@H](CC[C@]4(C)C(=O)CC[C@@H]34)[C@@]1(C)C2 [5g, 1′-(4″-Chlorophenyl)-5′-methylpyrazolo[3′,4′:3,2]-5α-androst-17-one] | 73.7 | 23.2 | 94.4 | 18.1 | 54.7 | significantly higher | 11.8 |  | 65.7 | 65.1 | 38.7 | 39.0 | 56.3 | 28.0 |  |  |  |  |  | 
4 | Cc1c2c(nn1-c1ccc(Br)cc1)C[C@@H]1CC[C@@H]3[C@H](CC[C@]4(C)[C@@H](O)CC[C@@H]34)[C@@]1(C)C2 [4h, 17β-Hydroxy-1′-(4″-bromophenyl)-5′-methylpyrazolo[3′,4′:3,2]-5α-androstane] | 95.1 | 2.2 | 92.8 | 12.7 | 61.6 |  | 3.6 |  | 69.4 | 10.5 | 38.2 | 5.8 | 54.1 | 5.2 |  |  |  |  |  | 
5 | Cc1ccc(-n2nc3c(c2C)C[C@@]2(C)[C@@H](CC[C@@H]4[C@@H]2CC[C@]2(C)[C@@H](O)CC[C@@H]42)C3)c(C)c1 [4d, 17β-Hydroxy-1′-(2″,4″-dimethylphenyl)-5′-methylpyrazolo[3′,4′:3,2]-5α-androstane] | 70.2 | 2.3 | 78.9 | 0.8 | 53.4 |  | 3.6 |  | 92.0 | 47.9 | 65.6 | 56.1 | 74.5 | 10.5 |  |  |  |  |  | 
6 | Cc1c2c(nn1-c1ccc(F)cc1)CC1CCC3C4CCC(O)C4(C)CCC3C1(C)C2 (stereo not drawn) [4f, 17β-Hydroxy-1′-(4″-fluorophenyl)-5′-methylpyrazolo[3′,4′:3,2]-5α-androstane] | 71.6 | 3.9 | 68.7 | 14.8 | 41.8 |  | 5.1 |  | 83.4 | 32.0 | 46.1 | 7.6 | 57.1 | 5.4 |  |  |  |  |  | 
7 | Cc1c2c(nn1-c1ccc(Cl)cc1)C[C@@H]1CC[C@@H]3[C@H](CC[C@]4(C)[C@@H](O)CC[C@@H]34)[C@@]1(C)C2 [4g, 17β-Hydroxy-1′-(4″-chlorophenyl)-5′-methylpyrazolo[3′,4′:3,2]-5α-androstane] | 74.8 | 1.4 | 80.1 | 1.1 | 44.6 | significantly higher | 3.0 |  | 78.4 | 5.3 | 40.1 | 4.7 | 48.5 | 5.3 | 14.2 ± 1.3 | 15.6 ± 1.4 | 7.7 ± 1.2 | 12.6 ± 1.5 | 7.2 ± 0.4 | 4.4 ± 0.3
8 | Cc1c2c(nn1-c1ccc(F)cc1)C[C@@H]1CC[C@@H]3[C@H](CC[C@]4(C)C(=O)CC[C@@H]34)[C@@]1(C)C2 [5f, 1′-(4″-Fluorophenyl)-5′-methylpyrazolo[3′,4′:3,2]-5α-androst-17-one] | 74.9 | 50.7 | 83.9 | 66.1 | 54.3 | significantly higher | 17.6 | significantly higher | 82.3 | 66.0 | 40.5 | 50.5 | 72.6 | 30.6 |  |  |  |  |  | 
